Test results as given in US20250034171A1, “IMIDAZOPYRIDINE AMIDES AND RELATED COMPOUNDS FOR USE IN THE TREATMENT OF BACTERIAL INFECTIONS” (priority 2021, published 2025).
≈ marks a conversion by molar mass, not a printed value. Where two headings read alike, the source gives them in different places.

Tests used:
[1] = HTChem stab assay (chemical stability in buffer pH2, pH4 and pH7 vs DMSO reference); format: physicochemical
Procedure: HTChem stab assay was used to assess the chemical stability of the compounds. 72 h stirring at rt in a buffer pH2, pH4 and pH7 vs a reference DMSO solution. HTChem stab assay is based on the handbook of Pharmaceutical Stress Testing, Predicting Drug Degradation, second edition, authors Baertschi, Alsante, Reed ISBN 978-143980179-6.
Compounds were plated (1 μl 10 mM DMSO stock in 96 well plate (DMSO control+3 pH conditions), one plate per condition).
200 μL of respectively DMSO, Buffer/DMSO mix pH2, Buffer/DMSO mix pH4 and Buffer/DMSO mix pH7 was added.
After 72 h shaking (300 rpm) at room temperature the samples were analysed by LC/UV/MS. Chromatograms of samples (stability conditions) were compared with the chromatograms of control sample (DMSO). Extra peaks were flagged and identified by mass spectrometry. Sample purity (reference included) were reported.
• pH3 buffer: For 11; weigh 4.14 g NaH2PO4·H2O, add 600 ml H2O, add H3PO4 to pH3, add H2O to 1000 ml. Filter over 0.2 μm and store at 4° C. Expires after 30 days. • pH6 buffer: For 1 l; weigh 4.14 g NaH2PO4·H2O, add 600 ml H2O, add 1N NaOH to pH6, add H2O to 1000 ml. Filter over […] and store at 4° C. Expires after 30 days.
• pH2 Buffer/DMSO (StabSolvent): mix 2 parts of HCl 0.1N with 1 part of DMSO • pH4 Buffer/DMSO (StabSolvent): mix 2 parts of buffer pH3 with 1 part of DMSO • pH7 Buffer/DMSO (StabSolvent): mix 2 parts of buffer pH6 with 1 part of DMSO measure pH prior to use.
Instrument: Acquity UPLC; Column: Acquity HSS T3, 50 mm length×2.1 mm i.d., 1.8 μm particle size. Detectors: PDA (250-350 nm) and SQD2 (90-1500m/z). Mobile phase A: 0.1% Formic acid in water; Mobile phase B: 0.1% Formic acid in Acetonitrile.
Injection volume: 5 μL, flow rate 0.6 mL/min.
Data processing including peak integration and identification was done with Waters OpenLynx software.

[2] = test system: Mycobacterium tuberculosis strain H37Rv; test: Test 2: MIC determination against M. tuberculosis, resazurin fluorescence; format: cell-based; conditions: Test 2, M. tuberculosis H37Rv; for MIC90: read-out: Bacterial activity MIC90; for IC50: read-out: Bacterial activity pMIC50 (converted)
[3] = Metabolic stability in liver microsomes (intrinsic clearance); format: in vitro ADME; conditions: for half-life at 1 µM / microsomal CLint at 1 µM: microsomes
Procedure: The test compound was incubated under the generic condition (0.5 mg/ml microsomal protein, 1 mM NADPH, 1 mM MgCl2, and 0.1 M phosphate buffer, pH 7.4, 37° C.) at a defined substrate concentration (typically 1 μM) in liver microsomes of selected species across a time course (typically 0, 5, 10, 20, 40 and 60 minutes) at Cyprotex (Cheshire, UK). The liver microsomes, buffer and test compound will be pre-incubated for 5 minutes. The addition of the co-factor NADPH will initiate the reaction and the reaction was terminated by addition of acetonitrile. The samples were centrifuged prior to analysis by LC-MS/MS analysis. The relative amount of parent compound remaining in the active incubations vs. the control incubations (t=0 mins) for each compound was measured by peak area comparison. The in vitro metabolic half-life (t1/2) was calculated using the slope of the log-linear regression from the percentage parent compound remaining versus time relationship (κ), The in vitro intrinsic clearance (Cl^int) (μl/min/mg microsomal protein) was calculated using the in vitro metabolic half-life, incubation volume and the weight of microsomal protein in the incubation.

[4] = buffer pH2/DMSO, 72 h stirring at rt
[5] = buffer pH4/DMSO, 72 h stirring at rt
[6] = buffer pH7/DMSO, 72 h stirring at rt
[7] = reference DMSO solution, 72 h stirring at rt
[8] = Mycobacterium tuberculosis, H37RV
[9] = human, pH 7.4, Metabolic Stability Half life (human, min.)
[10] = human, pH 7.4, human liver microsomes, read-out: Metabolic Stability (liver microsome intrinsic clearance) Clearance (human, μl/min./mg protein)
[11] = mouse, pH 7.4, Metabolic Stability Half life (mouse, min.)
[12] = mouse, pH 7.4, mouse liver microsomes, read-out: Metabolic Stability (liver microsome intrinsic clearance) Clearance (mouse, μl/min./mg protein)

Row | Structure (SMILES) | Chemical stability data, Vehicle DMSO ([1]; 72 h, 50 µM) | Chemical stability data, Buffer pH2 ([1]; 72 h, 50 µM, pH 2) | Chemical stability data, Buffer pH4 ([1]; 72 h, 50 µM, pH 4) | Chemical stability data, Buffer pH7 ([1]; 72 h, 50 µM, pH 7) | MIC90 [2, 8] | IC50 [2, 8] | half-life at 1 µM [3, 11] | microsomal CLint at 1 µM [3, 12] | also measured
1 | CCc1nc2cc(F)ccn2c1C(=O)NCc1ccc(-c2nc3n(n2)CCC(C(F)(F)F)C3)cc1 (racemic) [Compound 7ab] | – | – | – | – | – | – | – | – | Chemical stability data, Buffer pH2 [1, 4]: 100%; Chemical stability data, Buffer pH4 [1, 5]: 100%; Chemical stability data, Buffer pH7 [1, 6]: 100%; Chemical stability data, Vehicle DMSO [1, 7]: 100%; Bacterial activity pMIC50 [2]: 8.362; MIC90 [2]: 0.014 µM (≈ 0.00681 µg/mL); Metabolic Stability (liver microsome intrinsic clearance) Clearance (mouse, μl/min./mg protein) ([3]; mouse liver microsomes): 20.5 μl/min./mg protein; Metabolic Stability Half life (mouse, min.) ([3]; mouse liver microsomes): 1.13 h
2 | CCc1nc2ncc(C)cn2c1C(=O)NCc1ccc(-c2nc3n(n2)CCC(C(F)(F)F)C3)cc1 (single isomer, unassigned) [Compound 1a] | 100% | 100% | 100% | 100% | 0.009 µM (≈ 0.00435 µg/mL) | 3130 pM | > 3 h | < 7.7 µL/min/mg | half-life at 1 µM [3, 9]: > 3 h; microsomal CLint at 1 µM [3, 10]: < 7.7 µL/min/mg
3 | CCc1nc2ncc(C)cn2c1C(=O)NCc1ccc(-c2cn3c(n2)CC(C(F)(F)F)CC3)cc1 (stereo not drawn) [Compound 3ab] | – | – | – | – | 0.009 µM (≈ 0.00434 µg/mL) | 3550 pM | 1.7 h | 13.6 µL/min/mg | half-life at 1 µM [3, 9]: 1.54 h; microsomal CLint at 1 µM [3, 10]: 15 µL/min/mg
4 | CCc1nc2ncc(CN)cn2c1C(=O)NCc1ccc(-c2nc3n(n2)CCC(C(F)(F)F)C3)cc1 (stereo not drawn) [Compound 16ab] | 77% | 74% | 74% | 80% | – | > 500000 pM | – | – | –
5 | CCc1nc2ncc(C)cn2c1C(=O)NCc1ccc(-c2nc3n(c2C)CCC(C(F)(F)F)C3)cc1 (stereo not drawn) [Compound 19ab] | 98% | 98% | 98% | 98% | 0.047 µM (≈ 0.0233 µg/mL) | 11500 pM | – | – | –
6 | CCc1nc2ncc(C)cn2c1C(=O)NCc1ccc(-c2nn3c(c2C)CC(C(F)(F)F)CC3)cc1 (stereo not drawn) [Compound 21ab] | 100% | 100% | 100% | 100% | 0.011 µM (≈ 0.00546 µg/mL) | 3490 pM | – | – | –
7 | CCc1nc2ncc(C)cn2c1C(=O)NCc1ccc(-c2nc3n(n2)CCC(C2CC2)C3)cc1 (stereo not drawn) [Compound 27ab] | 100% | 100% | 100% | 100% | 0.014 µM (≈ 0.00638 µg/mL) | 4610 pM | – | – | –
8 | CCCC1CCn2nc(-c3ccc(CNC(=O)c4c(CC)nc5ncc(C)cn45)cc3)nc2C1 (stereo not drawn) [Compound 28ab] | 100% | 100% | 100% | 100% | 0.011 µM (≈ 0.00503 µg/mL) | 3660 pM | – | – | –
9 | CCc1nc2ncc(C)cn2c1C(=O)NCc1ccc(-c2nc3n(n2)CCCC3)c(F)c1 [Compound 32ab] | 100% | 100% | 100% | 100% | 0.248 µM (≈ 0.108 µg/mL) | 79800 pM | – | – | –
10 | CCc1nc2ncc(C)cn2c1C(=O)NCc1ccc(-c2nc3n(n2)CCC(OC(F)(F)F)C3)cc1 (stereo not drawn) [Compound 33ab] | 100% | 64% | 100% | 100% | 0.039 µM (≈ 0.0195 µg/mL) | 12700 pM | – | – | –
11 | O=C(NCc1ccc(-c2cn3c(n2)CC(C(F)(F)F)CC3)nc1)c1c(C(F)(F)F)nc2ccccn12 (stereo not drawn) [Compound 36ab] | – | – | – | – | – | – | – | – | Chemical stability data, Buffer pH2 [1, 4]: 100%; Chemical stability data, Buffer pH4 [1, 5]: 100%; Chemical stability data, Buffer pH7 [1, 6]: 100%; Chemical stability data, Vehicle DMSO [1, 7]: 100%; Bacterial activity pMIC50 [2]: <6.301
12 | CCc1nc2ncc(OC)cn2c1C(=O)NCc1ccc(-c2nc3n(n2)CC[C@H](C(F)(F)F)C3)cc1 [Compound 49] | – | – | – | – | 0.023 µM (≈ 0.0115 µg/mL) | 7760 pM | 1.8 h | 12.9 µL/min/mg | –
13 | O=C(NCc1ccc(-c2nc3n(n2)CC[C@@H](C(F)(F)F)C3)cc1)c1c(C(F)F)nc2n1CCCC2 [Compound 80] | – | – | – | – | 0.2 µM (≈ 0.0989 µg/mL) | 56200 pM | 1.42 h | 16.3 µL/min/mg | –
14 | O=C(NCc1ccc(-c2nc3n(n2)CC[C@H](C(F)(F)F)C3)cc1)c1c(C(F)F)nc2n1CCCC2 [Compound 174] | – | – | – | – | 0.25 µM (≈ 0.124 µg/mL) | 67600 pM | 1.34 h | 17.3 µL/min/mg | –
15 | CCc1nc2ncccn2c1C(=O)NCc1ccc(-c2cc3n(n2)CCC(C(F)(F)F)C3)cc1 (stereo not drawn) [Compound 180] | – | – | – | – | 0.12 µM (≈ 0.0562 µg/mL) | 20000 pM | 2.35 h | 9.9 µL/min/mg | –
16 | CCc1nc2ncccn2c1C(=O)NCc1ccc(-c2cn3c(n2)CC(C(F)(F)F)CC3)c(F)c1 (stereo not drawn) [Compound 186] | – | – | – | – | 0.19 µM (≈ 0.0924 µg/mL) | 40700 pM | > 3 h | < 7.7 µL/min/mg | –
